# In PMC6691788, “Design and synthesis of phthalazine-based compounds as potent anticancer agents with potential antiangiogenic activity via VEGFR-2 inhibition” (Journal of Enzyme Inhibition and Medicinal Chemistry, 2019):
# Assays:
# Assay in all cases: NCI 60 cell panel SRB screen
# [1] = test system: CCRF-CEM; format: cell-based, human; conditions: for activity at 10 µM: single dose 10 μM, read-out: percent cell growth promotion
# [2] = test system: HL-60(TB); format: cell-based; conditions: Homo sapiens; for activity at 10 µM: single dose 10 μM, read-out: percent cell growth promotion
# [3] = test system: RPMI-8226; format: cell-based; conditions: Homo sapiens; for activity at 10 µM: RPMI-8226, single dose 10 μM, read-out: percent cell growth promotion
# [4] = test system: SR; format: cell-based; conditions: Homo sapiens; for activity at 10 µM: single dose 10 μM, read-out: percent cell growth promotion
# [5] = test system: NCI-H226; format: cell-based; conditions: Homo sapiens; for activity at 10 µM: NCI-H226, single dose 10 μM, read-out: percent cell growth promotion
# [6] = test system: NCI-H23; format: cell-based; conditions: Homo sapiens; for activity at 10 µM: NCI-H23, single dose 10 μM, read-out: percent cell growth promotion
# [7] = test system: HCC-2998; format: cell-based; conditions: Homo sapiens; for activity at 10 µM: HCC-2998, single dose 10 μM, read-out: percent cell growth promotion
# [8] = test system: HCT-116; format: cell-based; conditions: Homo sapiens; for activity at 10 µM: HCT-116, single dose 10 μM, read-out: percent cell growth promotion
# [9] = test system: HCT-15; format: cell-based; conditions: Homo sapiens; for activity at 10 µM: HCT-15, single dose 10 μM, read-out: percent cell growth promotion
# [10] = test system: KM12; format: cell-based; conditions: Homo sapiens; for activity at 10 µM: KM12, single dose 10 μM, read-out: percent cell growth promotion
# [11] = test system: SF-295; format: cell-based; conditions: Homo sapiens; for activity at 10 µM: SF-295, single dose 10 μM, read-out: percent cell growth promotion
# [12] = test system: SNB-19; format: cell-based; conditions: Homo sapiens; for activity at 10 µM: SNB-19, single dose 10 μM, read-out: percent cell growth promotion
# [13] = test system: MALME-3M; format: cell-based; conditions: Homo sapiens; for activity at 10 µM: read-out: percent cell growth promotion
# [14] = test system: UACC-62; format: cell-based; conditions: for activity at 10 µM: UACC-62, read-out: percent cell growth promotion
# [15] = test system: OVCAR-3; format: cell-based; conditions: Homo sapiens; for activity at 10 µM: OVCAR-3, single dose 10 μM, read-out: percent cell growth promotion
# [16] = test system: 786-0; format: cell-based; conditions: Homo sapiens; for activity at 10 µM: 786-0, single dose 10 μM, read-out: percent cell growth promotion
# [17] = test system: RXF 393; format: cell-based; conditions: Homo sapiens; for activity at 10 µM: RXF 393, single dose 10 μM, read-out: percent cell growth promotion
# [18] = test system: PC-3; format: cell-based; conditions: Homo sapiens; for activity at 10 µM: PC-3, single dose 10 μM, read-out: percent cell growth promotion
# [19] = test system: MCF7; format: cell-based; conditions: Homo sapiens; for activity at 10 µM: MCF7, read-out: percent cell growth promotion
# [20] = 5 log dose, 48 h, read-out: LC50 (the source's name)
smiles,measurement,setting,value
"Cc1nnc(N2CCN(c3ccccc3F)CC2)c2ccccc12 [Compound 8h, 1–(4-(2-Fluorophenyl)piperazin-1-yl)-4-methylphthalazine]",activity at 10 µM,[1]; Homo sapiens,99.7%
same,activity at 10 µM,[2],110%
same,activity at 10 µM,[3],101%
same,activity at 10 µM,[4],95.1%
same,activity at 10 µM,[5],90.1%
same,activity at 10 µM,[6],101%
same,activity at 10 µM,[7],101%
same,activity at 10 µM,[8],95.6%
same,activity at 10 µM,[9],91.8%
same,activity at 10 µM,[10],113%
same,activity at 10 µM,[11],92.7%
same,activity at 10 µM,[12],99.9%
same,activity at 10 µM,[13]; Malme-3M,103%
same,activity at 10 µM,[14]; Homo sapiens,99.2%
same,activity at 10 µM,[15],110%
same,activity at 10 µM,[16],90.2%
same,activity at 10 µM,[17],99.8%
same,activity at 10 µM,[18],99%
same,activity at 10 µM,[19],86.5%
"Cc1nnc(N2CCN(c3ccccn3)CC2)c2ccccc12 [Compound 8i, 1-Methyl-4–(4-(pyridin-2-yl)piperazin-1-yl)phthalazine]",activity at 10 µM,[1]; Homo sapiens,102%
same,activity at 10 µM,[2],108%
same,activity at 10 µM,[3],104%
same,activity at 10 µM,[4],92.1%
same,activity at 10 µM,[5],98.7%
same,activity at 10 µM,[6],106%
same,activity at 10 µM,[7],102%
same,activity at 10 µM,[8],98.1%
same,activity at 10 µM,[9],90.3%
same,activity at 10 µM,[10],110%
same,activity at 10 µM,[11],87.8%
same,activity at 10 µM,[12],101%
same,activity at 10 µM,[13]; Malme-3M,107%
same,activity at 10 µM,[14]; Homo sapiens,101%
same,activity at 10 µM,[15],114%
same,activity at 10 µM,[16],92.4%
same,activity at 10 µM,[17],98.6%
same,activity at 10 µM,[18],100%
same,activity at 10 µM,[19],89.1%
"O=C(Nc1ccccc1)Nc1ccc(Oc2nnc(Cl)c3ccccc23)cc1 [Compound 13a, 1–(4-(4-Chlorophthalazin-1-yloxy)phenyl)-3-phenylurea]",TGI,[1]; 5 log dose,> 25 µM
same,GI50,"[1]; Homo sapiens, 5 log dose",4.44 µM
same,CC50,"[1]; Homo sapiens, 5 log dose, 48 h, read-out: LC50 (the source's name)",> 25 µM
same,activity at 10 µM,[1]; Homo sapiens,47.6%
same,GI50,[2]; 5 log dose,2.7 µM
same,IC (TGI),[2]; 5 log dose,> 25 µM
same,CC50,[2]; [20],> 25 µM
same,activity at 10 µM,[2],12.1%
same,GI50,"[3]; RPMI-8226, 5 log dose",4.45 µM
same,IC (TGI),"[3]; RPMI-8226, 5 log dose",24.3 µM
same,CC50,"[3]; RPMI-8226, 5 log dose, 48 h, read-out: LC50 (the source's name)",> 25 µM
same,activity at 10 µM,[3],35.1%
same,GI50,[4]; 5 log dose,1.93 µM
same,IC (TGI),[4]; 5 log dose,8.26 µM
same,CC50,[4]; [20],> 25 µM
same,activity at 10 µM,[4],18%
same,GI50,"[5]; NCI-H226, 5 log dose",1.95 µM
same,IC (TGI),"[5]; NCI-H226, 5 log dose",9.25 µM
same,CC50,"[5]; NCI-H226, 5 log dose, 48 h, read-out: LC50 (the source's name)",> 25 µM
same,activity at 10 µM,[5],8.66%
same,GI50,"[6]; NCI-H23, 5 log dose",3.72 µM
same,IC (TGI),"[6]; NCI-H23, 5 log dose",9.44 µM
same,CC50,"[6]; NCI-H23, 5 log dose, 48 h, read-out: LC50 (the source's name)",24 µM
same,activity at 10 µM,[6],32.7%
same,GI50,"[7]; HCC-2998, 5 log dose",4.2 µM
same,IC (TGI),"[7]; HCC-2998, 5 log dose",12.2 µM
same,LC50 (50% lethal concentration),"[7]; HCC-2998, 5 log dose, 48 h",> 25 µM
same,activity at 10 µM,[7],52.9%
same,GI50,"[8]; HCT-116, 5 log dose",3.06 µM
same,IC (TGI),"[8]; HCT-116, 5 log dose",9.77 µM
same,LC50 (lethal concentration 50%),"[8]; HCT-116, 5 log dose, 48 h",> 25 µM
same,activity at 10 µM,[8],10.6%
same,GI50,"[9]; HCT-15, 5 log dose",3.54 µM
same,IC (TGI),"[9]; HCT-15, 5 log dose",12.9 µM
same,CC50,"[9]; HCT-15, 5 log dose, 48 h, read-out: LC50 (the source's name)",> 25 µM
same,activity at 10 µM,[9],36.4%
same,GI50,"[10]; KM12, 5 log dose",5.51 µM
same,IC (TGI),"[10]; KM12, 5 log dose",> 25 µM
same,CC50,"[10]; KM12, 5 log dose, 48 h, read-out: LC50 (the source's name)",> 25 µM
same,activity at 10 µM,[10],43.6%
same,GI50,"[11]; SF-295, 5 log dose",2.07 µM
same,IC (TGI),"[11]; SF-295, 5 log dose",5.63 µM
same,CC50,"[11]; SF-295, 5 log dose, 48 h, read-out: LC50 (the source's name)",13.5 µM
same,activity at 10 µM,[11],31.2%
same,GI50,"[12]; SNB-19, 5 log dose",1.67 µM
same,IC (TGI),"[12]; SNB-19, 5 log dose",8.46 µM
same,CC50,"[12]; SNB-19, 5 log dose, 48 h, read-out: LC50 (the source's name)",> 25 µM
same,activity at 10 µM,[12],9.64%
same,GI50,[13]; Malme-3M,1.62 µM
same,IC (TGI),"[13]; Malme-3M, read-out: TGI",5.93 µM
same,activity at 10 µM,[13]; Malme-3M,-29.6%
same,CC50,"[13]; MALME-3M, 5 log dose, 48 h, read-out: LC50 (the source's name)",16 µM
same,GI50,"[14]; Homo sapiens, UACC-62",6.84 µM
same,activity at 10 µM,[14]; Homo sapiens,41.3%
same,CC50,"[14]; Homo sapiens, UACC-62, 5 log dose, 48 h, read-out: LC50 (the source's name)",> 25 µM
same,TGI,"[14]; UACC-62, 5 log dose",> 25 µM
same,GI50,"[15]; OVCAR-3, 5 log dose",2.64 µM
same,IC (TGI),"[15]; OVCAR-3, 5 log dose",5.97 µM
same,CC50,"[15]; OVCAR-3, 5 log dose, 48 h, read-out: LC50 (the source's name)",13.5 µM
same,activity at 10 µM,[15],25.4%
same,GI50,"[16]; 786-0, 5 log dose",3.6 µM
same,IC (TGI),"[16]; 786-0, 5 log dose",8.18 µM
same,CC50,"[16]; 786-0, 5 log dose, 48 h, read-out: LC50 (the source's name)",18.6 µM
same,activity at 10 µM,[16],38.2%
same,GI50,"[17]; RXF 393, 5 log dose",2.69 µM
same,IC (TGI),"[17]; RXF 393, 5 log dose",6.24 µM
same,CC50,"[17]; RXF 393, 5 log dose, 48 h, read-out: LC50 (the source's name)",14.5 µM
same,activity at 10 µM,[17],-3.63%
same,GI50,"[18]; PC-3, 5 log dose",3.26 µM
same,IC (TGI),"[18]; PC-3, 5 log dose",10.6 µM
same,CC50,"[18]; PC-3, 5 log dose, 48 h, read-out: LC50 (the source's name)",> 25 µM
same,activity at 10 µM,[18],25.9%
same,GI50,[19]; MCF7,1.32 µM
same,IC (TGI),"[19]; MCF7, read-out: TGI",6.32 µM
same,activity at 10 µM,[19],-4.15%
same,CC50,"[19]; MCF7, 5 log dose, 48 h, read-out: LC50 (the source's name)",20.6 µM
"O=C(Nc1ccc(Cl)cc1)Nc1ccc(Oc2nnc(Cl)c3ccccc23)cc1 [Compound 13b, 1–(4-Chlorophenyl)-3–(4-(4-chlorophthalazin-1-yloxy)phenyl)urea]",activity at 10 µM,[1]; Homo sapiens,66%
same,activity at 10 µM,[2],67.3%
same,activity at 10 µM,[3],87.7%
same,activity at 10 µM,[4],82.8%
same,activity at 10 µM,[5],81.4%
same,activity at 10 µM,[6],89%
same,activity at 10 µM,[7],115%
same,activity at 10 µM,[8],97.8%
same,activity at 10 µM,[9],94.1%
same,activity at 10 µM,[10],84.5%
same,activity at 10 µM,[11],91.6%
same,activity at 10 µM,[12],103%
same,activity at 10 µM,[13]; Malme-3M,92.3%
same,activity at 10 µM,[14]; Homo sapiens,75.7%
same,activity at 10 µM,[15],85.4%
same,activity at 10 µM,[16],114%
same,activity at 10 µM,[17],99.7%
same,activity at 10 µM,[18],67.8%
same,activity at 10 µM,[19],86.2%
